Like-named read-outs stand apart in the source and are kept apart here. Where a SMILES comes first, the peptide text is derived from it. Where no end group is shown, it is not given here. Side-chain parts run from the residue outwards. [ ]: non-standard residue; d: D form. The star is where a group is joined. DOTA = O=C(O)CN1CCN(CC(=O)O)CCN(CC(=O)*)CCN(CC(=O)O)CC1; Palmitoyl = CCCCCCCCCCCCCCCC(=O)*; Myristoyl = CCCCCCCCCCCCCC(=O)*; Glu = glutamate linker
What was measured:
[1] = test system: CXCR4-tropic X4-HIV-1 (NL4-3); assay type: cell-based
Experimental: The activity of the peptides was estimated by different assays.
The X4-HIV inhibition assay is designed to measure the activity of the inventive peptides by their efficiency of blocking the infection of tissue culture cells by CXCR4-tropic HIV-1 variants.
HIV-1 inhibition assay. […] For infection of TZM-bl cells in presence of inhibitors, cells were seeded at a density of 1×10^5 cells/ml in 70 μl DMEM containing 2.5% FCS. Compounds were diluted in PBS and 10 μl were added. After 15 minutes of incubation cells were inoculated with 20 μl of diluted virus. Infection rates were determined three days later using Gal-Screen system (Applied Biosystems).

CXCR4 = target: T1, CXCR4 (Homo sapiens, UniProt P61073); test: Antibody competition assay (12G5-assay) on SupT1 cells; assay type: binding
T1 construct: endogenous in cells; host or cells: SupT1 cells
Experimental: Second, the activity was tested by an antibody competition assay (FIG. 2). Values determined by the competition assay represent the potency of a compound to compete with an antibody that specifically binds to the binding pocket (ECL2) of CXCR4. […] To the right of the diagrams, an assignment of the curves to the tested peptides is explained. […] Three independent experiments were carried out for each peptide in each assay. The error bars refer to the standard deviation.
(§1) Antibody competition assay. Competition of compounds with antibody binding was performed on SupT1 cells. For that cells were washed in PBS containing 1% FCS and 50,000 cells were then seeded per well in a 96 V-well plate. Buffer was removed and plates were precooled at 4° C. Compounds were diluted in PBS and antibody (clone 12G5, APC labelled) was diluted in PBS containing 1% FCS. The antibody was used at a concentration closed to its determined Kd. 15 μl compounds were then added to the cells and 15 μl antibody immediately afterwards. Plates were incubated at 4° C. in the dark for 2 hours. Afterwards cells were washed twice with PBS containing 1% FCS and fixed with 2% PFA. Antibody binding was analyzed by flow cytometry (FACS CytoFLEX; Beckman Coulter®).

[2] = test system: CXCL12-induced ERK signaling; test: ERK/AKT signaling assay in SupT1 cells: ERK phosphorylation; assay type: cell-based
Experimental: (§2) Third, the activity of the claimed EPI-X4 derivatives was tested by the effect on CXCL12/CXCR4-mediated ERK (Extracellular-signal Regulated Kinases) and AKT (a serine/threonine-protein kinase) signaling (FIG. 3). In that assay CXCR4 expressing cells are stimulated with the CXCR4 chemokine-ligand CXCL12, which subsequently leads to phosphorylation of ERK and AKT. Preincubation of cells with CXCR4-antagonists blocks those pathways. […] Two or three independent experiments were carried out in triplicates for each peptide in each assay. The error bars refer to the standard deviation.
(§3) ERK/AKT signaling assay. CXCL12 induced ERK and AKT phosphorylation was determined in SupT1 cells. For this, 100,000 cells were seeded per well in a 96-V well plate in 100 μl medium supplemented with 1% FCS. Cells were incubated for 2 hours at 37° C. before 5 μl of compounds were added. After 15 min incubation at 37° C. cells were stimulated by adding 5 μl CXCL12 diluted in PBS to reach a final concentration of 100 ng/ml. Cells were further incubated for 2 min before the reaction was stopped by adding 20 μl of 10% PFA. Cells were fixed for 15 min at 4° C. before PFA was removed and cells permeabilized by adding 100 μl ice cold methanol. After 15 min at 4° C. the methanol was removed, cells were washed and 30 μl primary antibody was added (phospho-p44/42 MAPK (Erk1) (Tyr204)/(Erk2) (Tyr187) (D1H6G) mouse mAb #5726; phosphor-Akt (Ser473) (193H12) rabbit mAb #4058 Cell Signaling) for 1 hour at 4° C. After the antibody was removed and cells were washed secondary antibody was added for 30 min. Cells were washed afterwards and subsequently analyzed by flow cytometry.

[3] = test system: CXCL12-induced AKT signaling; test: ERK/AKT signaling assay in SupT1 cells: AKT phosphorylation; assay type: cell-based
Experimental: as §2, §3

[4] = target: T2, CXC chemokine receptor type 4 (CXCR4) (human, UniProt P61073 1-352); test: 12G5-APC antibody competition on SupT1 cells, flow cytometry
T2 construct: whole, on cells
Experimental: To the right of the diagrams, an assignment of the curves to the tested peptides is explained. […] Three independent experiments were carried out for each peptide in each assay. The error bars refer to the standard deviation.
as §1, with “Compounds were diluted in PBS and antibody (clone 12G5, APC labelled) was diluted in PBS containing 1% FCS.” left out

[5] = target: T2, CXC chemokine receptor type 4 (CXCR4); test: cell-based or functional assay

T1 sequence (P61073 whole entry): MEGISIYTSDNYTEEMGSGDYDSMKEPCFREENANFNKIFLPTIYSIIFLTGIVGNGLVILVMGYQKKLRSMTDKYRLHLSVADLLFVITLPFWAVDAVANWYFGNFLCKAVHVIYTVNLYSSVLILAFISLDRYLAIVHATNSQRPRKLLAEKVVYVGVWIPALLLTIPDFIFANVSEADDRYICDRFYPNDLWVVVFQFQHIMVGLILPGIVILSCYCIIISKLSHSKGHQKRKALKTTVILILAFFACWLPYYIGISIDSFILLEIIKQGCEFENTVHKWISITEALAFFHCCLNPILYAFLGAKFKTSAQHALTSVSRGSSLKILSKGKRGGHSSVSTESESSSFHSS
T2 sequence (P61073 whole entry): as above

SC066: PEG-coupled JM #21, two peptide copies on one end of PEG, average molecular mass 20 kDa (ILRWSRKLPCVS; also: PEG-coupled, two peptide copies on one end, average 20 kDa)
anti-HIV-1 activity (in words) [1]: comparable to the state of the art CXCR4-antagonist AMD3100 and JM #21
antibody competition / binding to CXCR4 (in words) (CXCR4): even higher activity than JM #21

JM #207: JM #122 with DOTA conjugated via an additional lysine coupled to the C-terminal amino acid of the peptide (ILRWSRKLPSVSK(DOTA))
anti-HIV-1 activity (in words) [1]: suppressed HIV-1 infection with similar potency as the non-conjugated peptide
antibody competition / binding to CXCR4 (in words) (CXCR4): displaced the antibody as efficiently as the non-conjugated JM #21

CCCCCCCCCCCCCCCC(=O)NCCCC[C@H](NC(=O)[C@H](CCCCN)NC(=O)[C@H](CO)NC(=O)[C@H](Cc1c[nH]c2ccccc12)NC(=O)[C@H](CCCNC(=N)N)NC(=O)[C@@H](NC(=O)[C@@H](N)[C@@H](C)CC)C(C)C)C(=O)N[C@H](C(=O)N1CCC[C@H]1C(N)=O)C(C)C [JM #167, IVRWSKK(Pal)VP-NH2] (H-IVRWSKK(Palmitoyl)VP-NH2)
IC50 (CXCR4): 2 nM

SC069: DSPE-coupled derivative (via PEG), two peptide copies on one end (ILRWSRKLPCVS; also: DSPE-coupled via PEG, two peptide copies on one end)
anti-HIV-1 activity (in words) [1]: higher activity than cholesterol-coupled SC043
antibody competition / binding to CXCR4 (in words) (CXCR4): higher activity than cholesterol-coupled SC043

SC037: PVP-coupled peptide JM #21, average molecular mass 20 kDa (ILRWSRKLPCVS; also: PVP-coupled, average 20 kDa)
anti-HIV-1 activity (in words) [1]: comparable activity as JM #21
antibody competition / binding to CXCR4 (in words) (CXCR4): comparable activity as JM #21

CCCCCCCCCCCCCCCC(=O)NCCCC[C@H](NC(=O)[C@H](CCCNC(=N)N)NC(=O)[C@H](CO)NC(=O)[C@H](Cc1c[nH]c2ccccc12)NC(=O)[C@H](CCCNC(=N)N)NC(=O)[C@H](CCSC)NC(=O)[C@H](N)CC(C)C)C(N)=O [JM #180, d-LMRWSRK(Pal)-NH2] (H-[dL]MRWSRK(Palmitoyl)-NH2)
remaining activity in plasma in vivo 4 hours post injection (mice, i.v. tail vein, 4 hours post injection): 29%
remaining activity in plasma in vivo 8 hours post injection (mice, i.v. tail vein, 8 hours post injection): about 9%
anti-HIV-1 activity (in words) [1]: strongly increased anti-HIV-1 activity

SC042: PVA-coupled peptide JM #21, average molecular mass 20 kDa (ILRWSRKLPCVS; also: PVA-coupled, average 20 kDa)
anti-HIV-1 activity (in words) [1]: comparable activity as JM #21
antibody competition / binding to CXCR4 (in words) (CXCR4): comparable activity as JM #21

CC[C@H](C)[C@H](N)C(=O)N[C@@H](CC(C)C)C(=O)N[C@@H](CCCNC(=N)N)C(=O)N[C@@H](Cc1c[nH]c2ccccc12)C(=O)N[C@@H](CO)C(=O)N[C@@H](CCCNC(=N)N)C(=O)N[C@@H](CCCCN)C(=O)N[C@@H](CCSC)C(=O)N1CCC[C@H]1C(=O)N[C@@H](CS)C(=O)N[C@@H](CC(C)C)C(=O)N[C@@H](CO)C(=O)O [JM #18] (H-ILRWSRKMPCLS-OH; C-terminus assumed)
reduction of CXCL12-induced ERK signaling ([2]; 0.1 μM): about 40%
reduction of CXCL12-induced ERK signaling ([2]; 1 μM): ~70%
reduction of CXCL12-induced AKT signaling ([3]; 0.1 μM): about 40%
reduction of CXCL12-induced AKT signaling ([3]; 1 μM): ~70%

CCCCCCCCCCCCCCCC(=O)NCCCC[C@H](NC(=O)[C@H](CCCCN)NC(=O)[C@H](CO)NC(=O)[C@H](Cc1c[nH]c2ccccc12)NC(=O)[C@H](CCCNC(=N)N)NC(=O)[C@@H](NC(=O)[C@@H](N)[C@@H](C)CC)C(C)C)C(=O)N[C@H](C(=O)N1CCC[C@H]1C(=O)N[C@@H](CS)C(=O)N[C@H](C(=O)N[C@@H](CO)C(=O)O)C(C)C)C(C)C [JM #169, IVRWSKK(Pal)VPCVS] (H-IVRWSKK(Palmitoyl)VPCVS-OH; C-terminus assumed)
reduction of CXCL12-induced ERK signaling ([2]; 0.1 μM): over 70%
reduction of CXCL12-induced ERK signaling ([2]; 1 μM): almost completely blocked
reduction of CXCL12-induced AKT signaling ([3]; 0.1 μM): 85%
reduction of CXCL12-induced AKT signaling ([3]; 1 μM): completely

SC001: DSPE-coupled derivative (via PEG), one peptide copy (ILRWSRKLPCVS; also: DSPE conjugate via PEG, one peptide copy, site not given here)
anti-HIV-1 activity (in words) [1]: higher activity than cholesterol-coupled SC043
antibody competition / binding to CXCR4 (in words) (CXCR4): higher activity than cholesterol-coupled SC043

CCCCCCCCCCCCCCCC(=O)NCCCC[C@H](NC(=O)[C@H](CCCNC(=N)N)NC(=O)[C@H](CO)NC(=O)[C@H](Cc1c[nH]c2ccccc12)NC(=O)[C@H](CCCNC(=N)N)NC(=O)[C@H](CCSC)NC(=O)[C@H](N)CC(C)C)C(=O)N[C@@H](CCSC)C(=O)N1CCC[C@H]1C(N)=O [JM #178, d-LMRWSRK(Pal)MP-NH2] (H-[dL]MRWSRK(Palmitoyl)MP-NH2; N-terminus assumed)
anti-HIV-1 activity (in words) [1]: strongly increased anti-HIV-1 activity
IC50 (CXCR4): 2 nM

ILRWSRK(Glu-Myr)LPCVS (ILRWSRK([Glu-Myristoyl])LPCVS) [JM #204]
remaining activity in plasma in vivo 4 hours post injection (mouse, in vivo, iv, 4 h): lost

JM #206: JM #21 with DOTA conjugated via an additional lysine coupled to the C-terminal amino acid of the peptide (ILRWSRKLPCVSK(DOTA))
anti-HIV-1 activity (in words) [1]: suppressed HIV-1 infection with similar potency as the non-conjugated peptide
antibody competition / binding to CXCR4 (in words) (CXCR4): displaced the antibody as efficiently as the non-conjugated JM #21

B1: JM#167 (peptide)
peptide: IVRWSKK(Palmitoyl)VP-NH2
modifications: N-terminus assumed
SMILES: CCCCCCCCCCCCCCCC(=O)NCCCC[C@H](NC(=O)[C@H](CCCCN)NC(=O)[C@H](CO)NC(=O)[C@H](Cc1c[nH]c2ccccc12)NC(=O)[C@H](CCCNC(=N)N)NC(=O)[C@@H](NC(=O)[C@@H](N)[C@@H](C)CC)C(C)C)C(=O)N[C@H](C(=O)N1CCC[C@H]1C(N)=O)C(C)C
fold more effective binding than EPI-X4 [4]: > 2000 fold
fold more effective than WSC02 [4]: ~300 fold

B2: JM#178 (peptide)
peptide: [dL]MRWSRK(Palmitoyl)MP-NH2
modifications: N-terminus assumed
SMILES: CCCCCCCCCCCCCCCC(=O)NCCCC[C@H](NC(=O)[C@H](CCCNC(=N)N)NC(=O)[C@H](CO)NC(=O)[C@H](Cc1c[nH]c2ccccc12)NC(=O)[C@H](CCCNC(=N)N)NC(=O)[C@H](CCSC)NC(=O)[C@H](N)CC(C)C)C(=O)N[C@@H](CCSC)C(=O)N1CCC[C@H]1C(N)=O
IC50, HIV inhibition assay [5]: 5 to 10 nM
fold more effective binding than EPI-X4 [4]: > 2000 fold
fold more effective than WSC02 [4]: ~300 fold

Source: patent US20230131339A1, “EPI-X4 BASED PEPTIDES AND DERIVATIVES THEREOF” (Universitaet Ulm, priority 2020, published 2023)
